{"source": "patent US20080306098A1", "about": "“Pharmacokinetics of protease inhibitors and other drugs” (priority 2006, published 2008)", "key": {"[1]": {"details": "non-transplant patients; cited from earlier work"}, "[2]": {"details": "in vivo; cited from earlier work"}, "CYP3a4": {"biological_target": "T1, CYP3a4 (Homo sapiens, UniProt P08684)", "T1 construct": "purchased Invitrogen (Carlsbad, Calif.)", "T1 sequence (P08684 whole entry)": "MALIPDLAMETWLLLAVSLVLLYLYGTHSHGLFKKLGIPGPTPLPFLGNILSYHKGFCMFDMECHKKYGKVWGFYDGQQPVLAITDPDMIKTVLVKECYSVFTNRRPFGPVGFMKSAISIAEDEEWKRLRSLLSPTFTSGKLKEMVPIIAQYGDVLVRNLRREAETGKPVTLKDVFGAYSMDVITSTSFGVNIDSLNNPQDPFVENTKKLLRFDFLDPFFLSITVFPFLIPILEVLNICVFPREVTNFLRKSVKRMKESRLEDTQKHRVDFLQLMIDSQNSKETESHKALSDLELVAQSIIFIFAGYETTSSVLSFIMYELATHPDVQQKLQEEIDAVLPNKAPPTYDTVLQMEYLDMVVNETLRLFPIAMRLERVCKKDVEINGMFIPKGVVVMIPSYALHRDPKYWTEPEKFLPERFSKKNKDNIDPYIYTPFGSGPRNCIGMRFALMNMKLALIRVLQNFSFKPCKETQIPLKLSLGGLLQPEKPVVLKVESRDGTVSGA", "assay": "Fluorescence-based CYP3a4 assay (Invitrogen VIVID probes), with or without recombinant human FKBP", "format": "in vitro ADME", "description": "An amyloid ligand, curcumin, is known to be a good substrate for CYP3a4 (a common P450 enzyme). We investigated whether conjugates between curcumin and FK506 would also be substrates for the enzyme. To test this possibility, we utilized a well-known fluorescence-based CYP3a4 assay. This assay, marketed by Invitrogen (Carlsbad, Calif.), under the name VIVID probes, relies on cytochrome-mediated production of a fluorescent marker from a model substrate. When a compound, such as curcumin, binds to the P450, it displaces the substrate and reduces the rate of production of the fluorescent product. […] However, when we supplied a source of human FKBP (in this case, recombinant bacterially-expressed protein), we observed very different results as shown in FIG. 3. […] It is believed that FKBP protects the curcumin conjugates from degradation by sterically hindering CYP3a4 binding. In the presence of cellular FKBP sources, this effect would be predicted to be increased because the compartmentalization of the conjugate further reduces availability to P450 enzymes."}, "[3]": {"details": "unmodified drug; cited from earlier work"}}, "note": "Read-outs that look alike come from different tables or passages of the source."}
{"smiles": "C=CC[C@@H]1/C=C(\\C)C[C@H](C)C[C@H](OC)[C@H]2O[C@@](O)(C(=O)C(=O)N3CCCC[C@H]3C(=O)O[C@H](/C(C)=C/[C@@H]3CC[C@@H](O)[C@H](OC)C3)[C@H](C)[C@@H](O)CC1=O)[C@H](C)C[C@@H]2OC", "note": "[FK506, FK506 (tacrolimus)]", "values": [{"measurement": "half-life", "setting": "[1]", "result": 21, "unit": "h"}, {"measurement": "distribution into protected cellular compartments (in the blood)", "setting": "[2]", "result": "72-98%"}]}
{"smiles": "COc1cc(/C=C/C(=O)CC(=O)/C=C/c2ccc(O)c(OC)c2)ccc1O", "note": "[curcumin]", "values": [{"measurement": "protection from degradation by CYP3a4", "setting": "CYP3a4; in the presence of recombinant human FKBP", "result": "unable to protect"}, {"measurement": "substrate for CYP3a4", "setting": "CYP3a4; without FKBP", "result": "good substrates"}]}
{"smiles": "CN(Cc1cnc2nc(N)nc(N)c2n1)c1ccc(C(=O)N[C@@H](CCC(=O)O)C(=O)O)cc1", "note": "[methotrexate]", "values": [{"measurement": "half-life", "setting": "[3]", "result": 6, "unit": "h"}]}
